Key:
[1] = Metabolic stability in monkey liver microsomes assessed as parent compound remaining at 1 uM in the presence of NADPH measured after 60 mins by LC-MS/MS analysis; format: ADME, Macaca mulatta, Microsome; conditions: rhesus monkey; for remaining at 1 h, 1 µM: liver microsomes, read-out: Stability
[2] = Metabolic stability in mouse liver microsomes assessed as parent compound remaining at 1 uM in the presence of NADPH measured after 60 mins by LC-MS/MS analysis; format: ADME, Microsome; conditions: liver microsomes, read-out: Stability
[3] = Metabolic stability in human liver microsomes assessed as parent compound remaining at 1 uM in the presence of NADPH measured after 60 mins by LC-MS/MS analysis; format: ADME, Microsome; conditions: read-out: Stability
[4] = Metabolic stability in monkey liver microsomes assessed as intrinsic clearance at 1 uM in the presence of NADPH measured for 60 mins by LC-MS/MS analysis; format: ADME, Macaca mulatta, Microsome; conditions: rhesus monkey, read-out: CLH
[5] = Metabolic stability in mouse liver microsomes assessed as intrinsic clearance at 1 uM in the presence of NADPH measured for 60 mins by LC-MS/MS analysis; format: ADME, Microsome; conditions: read-out: CLH
[6] = Metabolic stability in human liver microsomes assessed as intrinsic clearance at 1 uM in the presence of NADPH measured for 60 mins by LC-MS/MS analysis; format: ADME, Microsome; conditions: read-out: CLH
[7] = target: Synaptic vesicular amine transporter (Rattus norvegicus) (UniProt Q01827); assay: Inhibition of [3H]DA uptake at VMAT2 in rat striatal synaptosome at 1 uM incubated for 10 mins followed by [3H]DA addition and measured after 20 mins by TopCount scintillation counting method relative to control; format: subcellular; conditions: Striatum, time 30.0 min
Synaptic vesicular amine transporter (Rattus norvegicus), sequence (Q01827 whole entry): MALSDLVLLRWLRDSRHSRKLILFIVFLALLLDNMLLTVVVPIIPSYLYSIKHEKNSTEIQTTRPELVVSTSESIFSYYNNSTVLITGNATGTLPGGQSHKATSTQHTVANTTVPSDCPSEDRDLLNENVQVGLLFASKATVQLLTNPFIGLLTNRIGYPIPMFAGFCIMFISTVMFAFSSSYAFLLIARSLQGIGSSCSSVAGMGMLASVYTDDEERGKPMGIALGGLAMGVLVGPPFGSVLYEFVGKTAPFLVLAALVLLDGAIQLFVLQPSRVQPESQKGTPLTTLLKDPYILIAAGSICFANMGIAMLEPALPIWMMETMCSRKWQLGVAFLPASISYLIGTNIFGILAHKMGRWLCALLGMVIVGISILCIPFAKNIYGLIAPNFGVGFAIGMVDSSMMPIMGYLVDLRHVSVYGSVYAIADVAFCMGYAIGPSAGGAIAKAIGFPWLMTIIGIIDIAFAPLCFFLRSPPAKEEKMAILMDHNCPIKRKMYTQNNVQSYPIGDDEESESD

[8] = target: Synaptic vesicular amine transporter (Rattus norvegicus) (UniProt Q01827); assay: Inhibition of [3H]DA uptake at VMAT2 in rat striatal synaptosome at 0.1 uM incubated for 10 mins followed by [3H]DA addition and measured after 20 mins by TopCount scintillation counting method relative to control; format: subcellular; conditions: Striatum, time 30.0 min
[9] = target: T1, Synaptic vesicular amine transporter (Rattus norvegicus, UniProt Q01827); assay: Inhibition of [3H]DA uptake at VMAT2 in rat striatal synaptosome incubated for 10 mins followed by [3H]DA addition and measured after 20 mins by TopCount scintillation counting method; format: subcellular, Striatum
T1 sequence (Q01827 whole entry): as above

[10] = target: T1, Synaptic vesicular amine transporter; assay: Inhibition of [3H]DTBZ binding to VMAT2 in rat brain incubated for 30 mins by liquid scintillation spectrometry analysis; format: tissue-based
[11] = Metabolic stability in human liver microsomes assessed as half life at 1 uM in the presence of NADPH measured for 60 mins by LC-MS/MS analysis; format: ADME, Microsome
[12] = Metabolic stability in mouse liver microsomes assessed as half life at 1 uM in the presence of NADPH measured for 60 mins by LC-MS/MS analysis; format: ADME, Microsome; conditions: liver microsomes
[13] = Metabolic stability in monkey liver microsomes assessed as half life at 1 uM in the presence of NADPH measured for 60 mins by LC-MS/MS analysis; format: ADME, Macaca mulatta, Microsome; conditions: rhesus monkey
[14] = Tmax in Sprague-Dawley rat at 10 umol/kg, ig administered as single dose measured for 12 hrs by LC-MS/MS analysis; format: ADME; conditions: in vivo, po, dose 10 µmol/kg
[15] = Cmax in Sprague-Dawley rat at 10 umol/kg, ig administered as single dose measured for 12 hrs by LC-MS/MS analysis; format: ADME; set-up: route […], time 12 hrs, dose 10 µmol/kg; conditions: in vivo, po
[16] = AUC (0 to infinity) in Sprague-Dawley rat at 10 umol/kg, ig administered as single dose by LC-MS/MS analysis; format: ADME; set-up: time infinity, route […], dose 10 µmol/kg; conditions: in vivo, po
[17] = Apparent volume of distribution during terminal phase in Sprague-Dawley rat at 10 umol/kg, ig administered as single dose measured after 12 hrs by LC-MS/MS analysis; format: ADME; conditions: in vivo, po, dose 10 µmol/kg, read-out: Vz/F
[18] = Clearance in Sprague-Dawley rat at 10 umol/kg, ig administered as single dose measured for 12 hrs by LC-MS/MS analysis; format: ADME; conditions: in vivo, po, dose 10 µmol/kg
[19] = Half life in Sprague-Dawley rat at 10 umol/kg, ig administered as single dose measured for 12 hrs by LC-MS/MS analysis; format: ADME; conditions: in vivo, po, dose 10 µmol/kg
Rattus norvegicus [20] = assay: Reduction in spontaneous locomotor activity in Sprague-Dawley rat at 3 umol/kg, po measured for 3 hrs; format: functional
Rattus norvegicus [21] = assay: Reduction in spontaneous locomotor activity in Sprague-Dawley rat at 15 umol/kg, po measured for 3 hrs; format: functional
[22] = Drug uptake in Sprague-Dawley rat brain at 5 umol/kg, ig measured after 2 hrs by LC-MS/MS analysis; format: ADME, tissue-based; conditions: in vivo, po, dose 5 µmol/kg
Cytochrome P450 3A4 = Cytochrome P450 3A4 (Homo sapiens, UniProt P08684); assay: Inhibition of CYP3A4 (unknown origin); format: ADME
Cytochrome P450 3A4, sequence (P08684 whole entry): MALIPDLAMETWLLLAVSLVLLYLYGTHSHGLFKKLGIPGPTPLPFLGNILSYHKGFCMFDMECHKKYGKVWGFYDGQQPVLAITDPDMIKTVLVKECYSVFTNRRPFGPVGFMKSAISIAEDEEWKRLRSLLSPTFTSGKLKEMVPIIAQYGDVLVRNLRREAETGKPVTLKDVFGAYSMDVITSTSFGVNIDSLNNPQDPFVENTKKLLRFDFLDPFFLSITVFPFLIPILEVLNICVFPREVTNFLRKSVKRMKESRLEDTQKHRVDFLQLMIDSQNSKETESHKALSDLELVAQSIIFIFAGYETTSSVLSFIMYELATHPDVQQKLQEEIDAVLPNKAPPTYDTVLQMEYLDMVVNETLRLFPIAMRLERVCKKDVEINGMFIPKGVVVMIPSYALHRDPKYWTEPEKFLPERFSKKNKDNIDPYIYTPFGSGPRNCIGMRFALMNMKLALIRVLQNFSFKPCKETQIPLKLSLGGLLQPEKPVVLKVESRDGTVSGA

Cytochrome P450 2C9 = Cytochrome P450 2C9 (Homo sapiens, UniProt P11712); assay: Inhibition of CYP2C9 (unknown origin); format: ADME
Cytochrome P450 2C9, sequence (P11712 whole entry): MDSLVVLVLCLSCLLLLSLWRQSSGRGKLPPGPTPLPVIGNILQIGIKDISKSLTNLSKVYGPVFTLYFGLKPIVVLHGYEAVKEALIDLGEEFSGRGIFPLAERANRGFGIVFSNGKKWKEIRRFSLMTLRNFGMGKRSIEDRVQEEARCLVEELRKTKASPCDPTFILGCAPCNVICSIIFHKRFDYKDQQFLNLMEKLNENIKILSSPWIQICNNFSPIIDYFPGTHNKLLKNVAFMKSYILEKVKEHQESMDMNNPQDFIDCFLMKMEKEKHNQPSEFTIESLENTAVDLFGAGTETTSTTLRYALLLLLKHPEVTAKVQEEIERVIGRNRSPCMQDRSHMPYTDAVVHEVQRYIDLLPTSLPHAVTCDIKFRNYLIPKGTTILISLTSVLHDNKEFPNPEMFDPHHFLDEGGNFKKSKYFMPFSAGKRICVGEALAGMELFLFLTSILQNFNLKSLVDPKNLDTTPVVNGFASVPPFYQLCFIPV

Cytochrome P450 2D6 = Cytochrome P450 2D6 (Homo sapiens, UniProt P10635); assay: Inhibition of CYP2D6 (unknown origin); format: ADME
Cytochrome P450 2D6, sequence (P10635 whole entry): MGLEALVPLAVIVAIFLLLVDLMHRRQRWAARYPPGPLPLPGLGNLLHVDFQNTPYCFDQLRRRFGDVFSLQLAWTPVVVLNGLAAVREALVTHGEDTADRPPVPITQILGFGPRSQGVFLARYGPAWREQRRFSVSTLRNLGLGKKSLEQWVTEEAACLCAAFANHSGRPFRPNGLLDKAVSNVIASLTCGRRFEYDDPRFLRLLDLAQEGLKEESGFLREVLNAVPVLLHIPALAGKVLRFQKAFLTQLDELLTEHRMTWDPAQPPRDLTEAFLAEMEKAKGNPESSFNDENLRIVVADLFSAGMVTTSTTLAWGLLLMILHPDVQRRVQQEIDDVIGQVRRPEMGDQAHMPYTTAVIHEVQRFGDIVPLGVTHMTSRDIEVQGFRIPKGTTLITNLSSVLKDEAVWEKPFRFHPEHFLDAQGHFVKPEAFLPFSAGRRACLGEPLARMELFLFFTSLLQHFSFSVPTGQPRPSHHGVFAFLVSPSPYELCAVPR

Cytochrome P450 2C19 = Cytochrome P450 2C19 (Homo sapiens, UniProt P33261); assay: Inhibition of CYP2C19 (unknown origin); format: ADME
Cytochrome P450 2C19, sequence (P33261 whole entry): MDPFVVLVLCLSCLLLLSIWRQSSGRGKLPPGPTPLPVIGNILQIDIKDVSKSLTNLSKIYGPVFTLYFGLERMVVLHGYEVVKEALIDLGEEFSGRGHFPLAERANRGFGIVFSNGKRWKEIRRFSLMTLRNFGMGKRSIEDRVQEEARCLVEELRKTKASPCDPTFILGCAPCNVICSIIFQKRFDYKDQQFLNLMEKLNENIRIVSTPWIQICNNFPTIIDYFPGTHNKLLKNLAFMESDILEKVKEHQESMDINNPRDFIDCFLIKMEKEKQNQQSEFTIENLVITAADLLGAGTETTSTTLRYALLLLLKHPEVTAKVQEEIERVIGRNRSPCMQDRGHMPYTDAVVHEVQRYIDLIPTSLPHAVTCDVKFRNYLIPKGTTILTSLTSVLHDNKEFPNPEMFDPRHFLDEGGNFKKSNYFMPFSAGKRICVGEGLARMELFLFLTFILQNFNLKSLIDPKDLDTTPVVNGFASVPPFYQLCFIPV

Cytochrome P450 2B6 = target: T2, Cytochrome P450 2B6 (Homo sapiens, UniProt P20813); assay: Inhibition of CYP2B6 (unknown origin); format: ADME
T2 sequence (P20813 whole entry): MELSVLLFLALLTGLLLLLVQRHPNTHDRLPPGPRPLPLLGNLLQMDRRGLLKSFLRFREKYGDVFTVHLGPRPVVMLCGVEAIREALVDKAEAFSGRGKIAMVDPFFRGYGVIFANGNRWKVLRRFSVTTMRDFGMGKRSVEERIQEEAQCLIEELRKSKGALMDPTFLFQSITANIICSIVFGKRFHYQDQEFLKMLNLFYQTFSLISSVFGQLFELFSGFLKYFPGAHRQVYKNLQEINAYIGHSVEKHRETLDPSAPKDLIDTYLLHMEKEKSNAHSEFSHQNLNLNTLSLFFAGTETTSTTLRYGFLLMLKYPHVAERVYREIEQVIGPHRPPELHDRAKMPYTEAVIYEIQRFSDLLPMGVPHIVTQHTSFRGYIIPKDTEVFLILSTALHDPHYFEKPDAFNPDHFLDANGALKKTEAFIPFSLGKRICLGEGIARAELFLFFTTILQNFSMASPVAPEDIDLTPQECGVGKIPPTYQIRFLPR

CCOc1cc2c(cc1OC)C1CC(O)C(CC(C)C)CN1CC2 (stereo unspecified)
Stability ([1]; microsomes, 1 h, 1 µM): 23.7% | remaining at 1 h, 1 µM [2]: 9.4% | remaining at 1 h, 1 µM [3]: 66.8% | CLint scaled at 1 µM [4]: 131 mL/min/kg | CLint scaled at 1 µM [5]: 283 mL/min/kg | CLint scaled at 1 µM [6]: 14.4 mL/min/kg | inhibition [7]: 99.9% | inhibition [8]: 99.9% | IC50 [9]: 5.72 nM

COc1cc2c(cc1OC)C1CC(C)(O)C(CC(C)C)CN1CC2 (stereo unspecified)
IC50 [10]: > 500 nM | inhibition [7]: 96.1% | inhibition [8]: 53.1%

CCOc1cc2c(cc1OCCCOC)C1CC(O)C(CC(C)C)CN1CC2 (stereo unspecified)
IC50 [10]: 73.2 nM

CCC1(O)CC2c3cc(OC)c(OC)cc3CCN2CC1CC(C)C (stereo unspecified)
IC50 [10]: > 500 nM | inhibition [7]: 81.7% | inhibition [8]: 33.2%

CCOc1cc2c(cc1OCCCOC)CCN1CC(CC(C)C)C(O)CC21 (stereo unspecified)
IC50 [10]: 200 nM

COc1cc2c(cc1OC)C1CC(=O)C(CC(C)C)CN1CC2 (stereo unspecified) [TETRABENAZINE]
remaining at 1 h, 1 µM [1]: 10.5% | remaining at 1 h, 1 µM [2]: 13.4% | remaining at 1 h, 1 µM [3]: 30.8% | CLint scaled at 1 µM [4]: 149 mL/min/kg | CLint scaled at 1 µM [5]: 254 mL/min/kg | CLint scaled at 1 µM [6]: 76 mL/min/kg | half-life at 1 µM [11]: 32.8 min | half-life at 1 µM [12]: 21.6 min | half-life at 1 µM [13]: 12.6 min

COc1cc2c(cc1OC)C1CC(N)C(CC(C)C)CN1CC2 (stereo unspecified)
IC50 [10]: 102 nM | inhibition [7]: 87.9% | inhibition [8]: 72.8%

CCOc1cc2c(cc1OCC1CC1)C1CC(O)C(CC(C)C)CN1CC2 (stereo unspecified)
IC50 [10]: > 500 nM

CCCOc1cc2c(cc1OC)C1CC(O)C(CC(C)C)CN1CC2 (stereo unspecified)
inhibition [7]: 99.3% | inhibition [8]: 91.2% | IC50 [9]: 35.2 nM

COc1cc2c(cc1OC)C1CC(O)(C#N)C(CC(C)C)CN1CC2 (stereo unspecified)
IC50 [10]: 87 nM | inhibition [7]: 93.7% | inhibition [8]: 85% | IC50 [9]: 27.9 nM

CC(C)CC1CN2CCc3cc(OCC4CC4)c(OCC4CC4)cc3C2CC1O (stereo unspecified)
IC50 [10]: 210 nM

COc1cc2c(cc1OC)[C@H]1C[C@@H](O)[C@H](CC(C)C)CN1CC2 [DIHYDROTETRABENAZINE]
remaining at 1 h, 1 µM [1]: 29.9% | remaining at 1 h, 1 µM [2]: 4.8% | remaining at 1 h, 1 µM [3]: 75.6% | CLint scaled at 1 µM [4]: 53.7 mL/min/kg | CLint scaled at 1 µM [5]: 1150 mL/min/kg | CLint scaled at 1 µM [6]: 20.9 mL/min/kg | half-life at 1 µM [11]: 120 min | half-life at 1 µM [12]: 4.8 min | half-life at 1 µM [13]: 34.8 min | Tmax [14]: 22.8 min | Cmax [15]: 1210 nM | AUC(0-inf) [16]: 2.3 µM·h | Vd/F [17]: 10.5 L/kg | CL/F [18]: 74.5 mL/min/kg | half-life [19]: 96.6 min | inhibition in vivo at 3 µmol/kg (Rattus norvegicus [20]): 48.4% | inhibition in vivo at 15 µmol/kg (Rattus norvegicus [21]): 91.4% | Drug uptake [22]: 213.5 nmol/kg | IC50 (Cytochrome P450 3A4): > 100000 nM | IC50 (Cytochrome P450 2C9): > 100000 nM | IC50 (Cytochrome P450 2D6): > 100000 nM | IC50 (Cytochrome P450 2C19): > 100000 nM | IC50 (Cytochrome P450 2B6): > 100000 nM
